Measurements reported in ChEMBL document CHEMBL6178014, “Discovery and Administration Optimization of Novel Selective CDK9 Inhibitor, 1-7a-B1, for Improved Pharmacokinetics and Antitumor Efficacy In Vivo” (J Med Chem, 2025).
Activity calls are given as the source filed them. The rule behind the calls is not given here.

How the values were obtained:
[1] = Toxicity in female BALB/c nu-nu mouse xenografted with human HCT-116 cells assessed as histopathological changes in spleen at 20 mg/kg, po as submicron emulsion administered once daily for 3 weeks by H and E staining based analysis; assay type: organism-based; conditions: in vivo, 504 h
CDK9/cyclin T1 = CDK9/cyclin T1 (Homo sapiens, UniProt P50750); assay: Binding affinity to CDK9/cyclin T1 (unknown origin) assessed as dissociation constant by SPR analysis; assay type: protein-complex assay
HCT-116 [2] = assay: Antiproliferative activity against human HCT-116 cells assessed as inhibition of cell growth incubated for 48 hrs by CCK8 assay; assay type: functional
[3] = Half life in Sprague-Dawley rat at 30 mg/kg, po measured after 24 hrs by LC-MS/MS analysis; assay type: ADME, organism-based; conditions: in vivo
[4] = Toxicity in female BALB/c nu-nu mouse xenografted with human HCT-116 cells assessed as histopathological changes in heart at 20 mg/kg, po as submicron emulsion administered once daily for 3 weeks by H and E staining based analysis; assay type: organism-based; conditions: in vivo, 504 h
Mitochondrial membrane = assay: Induction of mitochondrial membrane depolarization in human HCT-116 cells at 100 to 400 nM incubated for 48 hrs by JC-1 staining based flow cytometry analysis; assay type: cell membranes; conditions: dose 100-400 nM
HCT-116 [5] = assay: Induction of ROS accumulation in human HCT-116 cells at 100 to 400 nM incubated for 48 hrs by […] staining based flow cytometry analysis; assay type: functional, cell-based; conditions: dose 100-400 nM
HCT-116 [6] = assay: Effect on MDM2 expression in human HCT-116 cells at 100 to 400 nM incubated for 48 hrs by Western blot analysis; assay type: functional, cell-based; conditions: dose 100-400 nM
HCT-116 [7] = assay: Effect on RNA polymerase II expression in human HCT-116 cells at 100 to 400 nM incubated for 48 hrs by Western blot analysis; assay type: functional, cell-based; conditions: dose 100-400 nM
HCT-116 [8] = assay: Downregulation of Bcl-2 level in human HCT-116 cells at 200 to 400 nM incubated for 48 hrs by Western blot analysis; assay type: functional, cell-based; conditions: dose 200-400 nM
HCT-116 [9] = assay: Induction of apoptosis in human HCT-116 cells assessed as increase in caspase-3 activity at 100 to 200 nM incubated for 48 hrs by GreenNuc substrate based flow cytometry analysis; assay type: functional, cell-based; conditions: dose 100-200 nM
[10] = Oral bioavailability in Sprague-Dawley rat at 30 mg/kg measured after 24 hrs by LC-MS/MS analysis; assay type: ADME, organism-based; conditions: in vivo
CYP1A2 = CYP1A2 (Homo sapiens, UniProt P05177); assay: Inhibition of CYP1A2 in human liver microsome at 10 uM pre-incubated with compound for 10 mins in presence of NADPH-regenerating system by LC-MS/MS analysis relative to control; assay type: ADME; conditions: liver microsomes
[11] = Volume of distribution in Sprague-Dawley rat at 30 mg/kg, po as submicron emulsion measured after 24 hrs by LC-MS/MS analysis; assay type: ADME, organism-based; conditions: in vivo
[12] = AUC (0 to infinity) in Sprague-Dawley rat at 30 mg/kg, po as submicron emulsion measured after 24 hrs by LC-MS/MS analysis; assay type: ADME, organism-based; conditions: in vivo
HCT-116 [13] = assay: Downregulation of c-Myc level in human HCT-116 cells at 200 to 400 nM incubated for 48 hrs by Western blot analysis; assay type: functional, cell-based; conditions: dose 200-400 nM
[14] = Toxicity in female BALB/c nu-nu mouse xenografted with human HCT-116 cells assessed as histopathological changes in kidney at 40 mg/kg, po administered once daily for 3 weeks by H and E staining based analysis; assay type: organism-based; conditions: in vivo, 504 h
[15] = Cmax in Sprague-Dawley rat at 30 mg/kg, po as submicron emulsion measured after 24 hrs by LC-MS/MS analysis; assay type: ADME, organism-based; conditions: in vivo
NCI-H226 = assay: Cytotoxicity against human NCI-H226 cells assessed as cell viability incubated for 48 hrs by CCK8 assay; assay type: functional, cell-based
HCT-116 [16] = assay: Downregulation of Mcl-1 mRNA level in human HCT-116 cells at 200 to 400 nM incubated for 48 hrs by qRT-PCR analysis; assay type: functional, cell-based; conditions: dose 200-400 nM
[17] = Volume of distribution in Sprague-Dawley rat at 30 mg/kg, po measured after 24 hrs by LC-MS/MS analysis; assay type: ADME, organism-based; conditions: in vivo
[18] = Oral bioavailability in Sprague-Dawley rat at 30 mg/kg as submicron emulsion measured after 24 hrs by LC-MS/MS analysis; assay type: ADME, organism-based; conditions: in vivo
HepG2 = assay: Cytotoxicity against human HepG2 cells assessed as cell viability incubated for 48 hrs by CCK8 assay; assay type: functional, cell-based
HCT-116 [19] = assay: Induction of apoptosis in human HCT-116 cells assessed as increase in caspase-3 cleavage incubated for 48 hrs by Western blot analysis; assay type: functional, cell-based; conditions: dose 100-400 nM
[20] = AUC (0 to infinity) in Sprague-Dawley rat at 30 mg/kg, po measured after 24 hrs by LC-MS/MS analysis; assay type: ADME, organism-based; conditions: in vivo
[21] = Toxicity in female BALB/c nu-nu mouse xenografted with human HCT-116 cells assessed as histopathological changes in heart at 40 mg/kg, po administered once daily for 3 weeks by H and E staining based analysis; assay type: organism-based; conditions: in vivo, 504 h
CYP2C19 = CYP2C19 (Homo sapiens, UniProt P33261); assay: Inhibition of CYP2C19 in human liver microsome at 10 uM pre-incubated with compound for 10 mins in presence of NADPH-regenerating system by LC-MS/MS analysis relative to control; assay type: ADME; conditions: liver microsomes
[22] = Tmax in Sprague-Dawley rat at 30 mg/kg, po measured after 24 hrs by LC-MS/MS analysis; assay type: ADME, organism-based; conditions: in vivo
[23] = Metabolic stability in human liver microsome assessed as intrinsic clearance at 100 uM pre-incubated with compound for 60 mins followed by NADPH addition and measured up to 60 mins by LC-MS/MS analysis; assay type: ADME; conditions: liver microsomes, read-out: CLH
HCT-116 [24] = assay: Upregulation of p21 expression in human HCT-116 cells at 100 to 400 nM incubated for 48 hrs by Western blot analysis; assay type: functional, cell-based; conditions: dose 100-400 nM
HCT-116 [25] = assay: Induction of cell senescence in human HCT-116 cells at 100 to 400 nM incubated for 48 hrs by beta-galactosidase staining based analysis; assay type: functional; conditions: dose 100-400 nM
[26] = target: E3 ubiquitin-protein ligase Mdm2 (Homo sapiens) (UniProt Q00987); assay: Inhibition of MDM2 phosphorylation at ser166 residue in human HCT-116 cells at 100 to 400 nM incubated for 48 hrs by Western blot analysis; assay type: cell-based; conditions: dose 100-400 nM
[27] = Stability in human plasma assessed as half life at 100 uM measured up to 120 mins by LC-MS/MS analysis; assay type: ADME, cell-free
Mus musculus = assay: In vivo inhibition of CDK9/cyclinT1 in female BALB/c nu-nu mouse xenografted with human HCT-116 cells assessed as inhibition of phosphorylation of RNA polymerase II at Ser 2 residue at 40 mg/kg, po incubated for 48 hrs by Western blot analysis; assay type: functional, organism-based
HCT-116 [28] = assay: Antitumor activity against human HCT-116 cells xenografted in female BALB/c nu-nu mouse assessed as increase in caspase-3 cleavage at 40 mg/kg, po incubated for 48 hrs by Western blot analysis; assay type: functional, organism-based
[29] = Plasma protein binding in human at 100 uM measured up to 120 mins by LC-MS/MS analysis relative to control; assay type: ADME, cell-free; conditions: read-out: PPB (converted)

Sequence of CYP1A2 (P05177 whole entry): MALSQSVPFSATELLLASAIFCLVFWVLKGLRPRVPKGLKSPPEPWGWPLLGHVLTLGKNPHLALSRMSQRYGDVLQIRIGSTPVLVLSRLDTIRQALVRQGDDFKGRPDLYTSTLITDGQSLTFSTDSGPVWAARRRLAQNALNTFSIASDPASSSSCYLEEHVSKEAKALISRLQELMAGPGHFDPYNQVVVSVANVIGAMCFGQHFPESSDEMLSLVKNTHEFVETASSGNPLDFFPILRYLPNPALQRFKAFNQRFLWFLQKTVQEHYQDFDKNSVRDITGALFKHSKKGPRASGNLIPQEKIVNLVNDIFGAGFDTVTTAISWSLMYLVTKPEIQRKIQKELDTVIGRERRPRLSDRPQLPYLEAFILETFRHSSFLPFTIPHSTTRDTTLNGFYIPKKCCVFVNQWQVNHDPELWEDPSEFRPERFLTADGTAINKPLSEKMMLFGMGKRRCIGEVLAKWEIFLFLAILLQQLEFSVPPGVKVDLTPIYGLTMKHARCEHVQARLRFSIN
Sequence of CDK9/cyclin T1 (O60563 whole entry): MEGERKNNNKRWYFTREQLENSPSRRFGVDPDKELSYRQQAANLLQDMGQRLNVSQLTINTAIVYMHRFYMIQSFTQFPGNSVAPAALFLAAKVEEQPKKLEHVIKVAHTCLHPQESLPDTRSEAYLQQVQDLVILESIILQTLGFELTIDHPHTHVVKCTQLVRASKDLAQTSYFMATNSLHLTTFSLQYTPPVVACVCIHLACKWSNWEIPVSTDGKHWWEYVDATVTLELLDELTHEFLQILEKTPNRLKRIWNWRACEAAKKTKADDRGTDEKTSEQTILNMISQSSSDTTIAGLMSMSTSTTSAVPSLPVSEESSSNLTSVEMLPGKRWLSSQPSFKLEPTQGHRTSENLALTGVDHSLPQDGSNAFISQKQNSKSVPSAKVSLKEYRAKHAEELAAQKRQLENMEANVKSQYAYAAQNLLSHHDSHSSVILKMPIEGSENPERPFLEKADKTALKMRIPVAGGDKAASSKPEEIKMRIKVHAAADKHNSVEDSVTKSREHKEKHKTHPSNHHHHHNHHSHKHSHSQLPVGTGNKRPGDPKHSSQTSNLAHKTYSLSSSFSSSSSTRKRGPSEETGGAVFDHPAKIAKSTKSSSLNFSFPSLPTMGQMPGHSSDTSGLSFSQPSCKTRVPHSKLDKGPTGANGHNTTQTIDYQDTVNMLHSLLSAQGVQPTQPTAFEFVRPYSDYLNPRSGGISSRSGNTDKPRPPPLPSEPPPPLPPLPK
Sequence of CDK9/cyclin T1 (P50750 whole entry): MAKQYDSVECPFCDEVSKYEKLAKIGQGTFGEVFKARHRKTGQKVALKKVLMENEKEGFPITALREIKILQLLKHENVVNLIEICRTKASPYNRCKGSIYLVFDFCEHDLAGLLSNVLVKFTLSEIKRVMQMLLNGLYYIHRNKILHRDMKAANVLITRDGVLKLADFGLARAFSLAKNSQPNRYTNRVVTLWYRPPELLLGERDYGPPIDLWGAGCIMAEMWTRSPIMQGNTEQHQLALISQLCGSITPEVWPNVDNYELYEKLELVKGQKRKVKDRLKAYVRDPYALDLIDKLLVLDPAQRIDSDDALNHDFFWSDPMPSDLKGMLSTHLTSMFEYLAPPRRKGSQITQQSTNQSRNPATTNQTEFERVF
Sequence of E3 ubiquitin-protein ligase Mdm2 (Homo sapiens) (Q00987 whole entry, looked up): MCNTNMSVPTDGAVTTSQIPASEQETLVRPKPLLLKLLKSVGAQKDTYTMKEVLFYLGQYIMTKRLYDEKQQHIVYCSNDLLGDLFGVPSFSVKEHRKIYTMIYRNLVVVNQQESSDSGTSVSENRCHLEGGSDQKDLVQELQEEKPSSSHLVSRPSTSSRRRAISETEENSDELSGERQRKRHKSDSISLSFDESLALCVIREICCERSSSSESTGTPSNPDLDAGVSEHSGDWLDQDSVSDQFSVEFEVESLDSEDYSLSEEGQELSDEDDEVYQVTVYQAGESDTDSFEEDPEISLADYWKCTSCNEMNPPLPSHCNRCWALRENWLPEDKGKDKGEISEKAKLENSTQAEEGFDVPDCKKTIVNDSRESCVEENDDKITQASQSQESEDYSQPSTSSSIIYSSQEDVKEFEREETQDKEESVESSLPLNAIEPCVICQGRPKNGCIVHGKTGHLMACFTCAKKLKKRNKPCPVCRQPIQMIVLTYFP
Sequence of CYP2C19 (P33261 whole entry): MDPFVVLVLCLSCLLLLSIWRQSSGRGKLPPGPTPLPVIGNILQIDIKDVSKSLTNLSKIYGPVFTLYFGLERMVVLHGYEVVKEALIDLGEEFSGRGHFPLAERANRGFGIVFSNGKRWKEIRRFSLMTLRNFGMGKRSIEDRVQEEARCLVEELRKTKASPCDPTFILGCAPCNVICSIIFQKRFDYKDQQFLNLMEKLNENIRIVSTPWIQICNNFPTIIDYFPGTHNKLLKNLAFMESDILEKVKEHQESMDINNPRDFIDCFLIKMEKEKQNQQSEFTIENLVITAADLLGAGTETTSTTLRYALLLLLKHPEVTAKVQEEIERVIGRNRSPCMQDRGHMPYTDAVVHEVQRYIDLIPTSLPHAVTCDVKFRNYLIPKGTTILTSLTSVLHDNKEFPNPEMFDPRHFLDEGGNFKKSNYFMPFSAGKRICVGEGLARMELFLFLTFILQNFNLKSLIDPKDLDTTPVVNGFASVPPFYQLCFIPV

Kd (CDK9/cyclin T1): 8.87 µM
GI50 (HCT-116 [2]): 0.15 µM
half-life [3]: 47 min
Activity (Mitochondrial membrane): Active
bioavailability [10]: 14.7%
inhibition at 10 µM (CYP1A2): 12.5%
Vd [11]: 6.52 L/kg
AUC [12]: 1611 ng·h/mL
Cmax [15]: 1020 ng/mL
Vd [17]: 5.54 L/kg
bioavailability [18]: 26.4%
AUC [20]: 900 ng·h/mL
inhibition at 10 µM (CYP2C19): 69.6%
Tmax [22]: 15 min
microsomal CLint at 100 µM [23]: 352 µL/min/mg
inhibition [26]: Active
half-life at 100 µM [27]: > 289 min
fraction unbound at 2 h, 100 µM [29]: 0.006
Structure (SMILES): CC(C)Oc1cc(F)ccc1-c1ccnc(NC(=O)Nc2cccc(C(=O)N3CCN(C)CC3)c2)c1
Activity [1]: Non-toxic
Activity [4]: Non-toxic
Activity (HCT-116 [5]): Active
Activity (HCT-116 [6]): inactive
Activity (HCT-116 [7]): inactive
Activity (HCT-116 [8]): Active
Activity (HCT-116 [9]): Active
Activity (HCT-116 [13]): Active
Activity [14]: Non-toxic
Activity (NCI-H226): Active
Activity (HCT-116 [16]): Active
Activity (HepG2): Active
Activity (HCT-116 [19]): Dose-dependent-effect
Activity [21]: Non-toxic
Activity (HCT-116 [24]): Active
Activity (HCT-116 [25]): Active
inhibition (Mus musculus): Active
Activity (HCT-116 [28]): Active
